The text below walks through data of patent publication US6949544B2, “Inhibitors of c-Jun N-terminal kinases (JNK) and other protein kinases” (Vertex Pharmaceuticals Incorporated, priority 2001, dated 2005).

Structures are written as SMILES.

The term Ki denotes the equilibrium dissociation constant of an inhibitor or competing ligand from its target. Usually inhibition stands for the relative decrease from the control value, in per cent.

Holding throughout (assay type): biochemical
In assay [1] the target is T1, full length recombinant human Src kinase (Homo sapiens, UniProt P12931).
T1 construct: full length recombinant human Src kinase; purchased Upstate Biotechnology 14-117; host or cells: baculo viral cells (baculovirus expression)
Put plainly: Src inhibition assay (33P incorporation into poly Glu-Tyr). The method, then:
The compounds were assayed as inhibitors of full length recombinant human Src kinase (from Upstate Biotechnology, cat. no. 14-117) expressed and purified from baculo viral cells. Src kinase activity was monitored by following the incorporation of ^33P from ATP into the tyrosine of a random poly Glu-Tyr polymer substrate of composition, Glu:Tyr=4:1 (Sigma, cat. no. P-0275). The following were the final concentrations of the assay components: 0.05 M HEPES, pH 7.6, 10 mM MgCl2, 2 mM DTT, 0.25 mg/ml BSA, 10 μM ATP (1-2 μCi ^33P-ATP per reaction), 5 mg/ml poly Glu-Tyr, and 1-2 units of recombinant human Src kinase. In a typical assay, all the reaction components with the exception of ATP were pre-mixed and aliquoted into assay plate wells. […] The assay plate was incubated at 30° C. for 10 min before initiating the reaction with ^33P-ATP. After 20 min of reaction, the reactions were quenched with 150 μl of 10% trichloroacetic acid (TCA) containing 20 mM Na3PO4. The quenched samples were then transferred to a 96-well filter plate (Whatman, UNI-Filter GF/F Glass Fiber Filter, cat no. 7700-3310) installed on a filter plate vacuum manifold. Filter plates were washed four times with 10% TCA containing 20 mM Na3PO4 and then 4 times with methanol. 200 μl of scintillation fluid was then added to each well. The plates were sealed and the amount of radioactivity associated with the filters was quantified on a TopCount scintillation counter.

Assay [2] deals with Glycogen Synthase Kinase 3 (GSK-3) (Homo sapiens, UniProt P49841). Put plainly: GSK-3 inhibition assay (standard coupled enzyme assay). To be noted: 60 nM GSK-3, 10 μM ATP; read-out: GSK-3 Inhibitory Activity (Ki rating A-C). The procedure, abridged: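 Pyruvate kinase/lactate dehydrogenase-coupled assay with 60 nM GSK-3 and 300 μM HSSPHQp-SEDEEE peptide in HEPES pH 7.5; compound preincubated 5 min at 30 °C, reaction started with 10 μM ATP. NADH absorbance at 340 nm tracked over 5 min; IC50 from rates versus inhibitor concentration.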

For another assay, the target named is T2, activated JNK3 (Homo sapiens, UniProt P53779).
T2 construct: One such construct encodes amino acid residues Ser40-Glu402 of JNK3α1 and is preceded by Met and Gly residues; Met-Gly (initiator methionine and added glycine) (N); made in house; host or cells: E. coli BL21 (DE3)
Put plainly: JNK inhibition assay (spectrophotometric coupled-enzyme assay). To be noted: 10 nM activated JNK3, 10 μM ATP; read-out: Activity in the JNK3 Inhibition Assay (Ki rating A-C). The procedure, abridged:
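Activated (doubly phosphorylated, MKK7(DD)-activated) human JNK3, 10 nM, preincubated 10 min at 30 °C with inhibitor in 0.1 M HEPES pH 7.5, 10 mM MgCl2, 200 μM EGF receptor peptide, PK/LDH-coupled. Started with 10 μM ATP; A340 decrease followed at 30 °C. Ki from competitive inhibition model fit.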

Glycogen Synthase Kinase 3 (GSK-3), sequence (P49841 whole entry): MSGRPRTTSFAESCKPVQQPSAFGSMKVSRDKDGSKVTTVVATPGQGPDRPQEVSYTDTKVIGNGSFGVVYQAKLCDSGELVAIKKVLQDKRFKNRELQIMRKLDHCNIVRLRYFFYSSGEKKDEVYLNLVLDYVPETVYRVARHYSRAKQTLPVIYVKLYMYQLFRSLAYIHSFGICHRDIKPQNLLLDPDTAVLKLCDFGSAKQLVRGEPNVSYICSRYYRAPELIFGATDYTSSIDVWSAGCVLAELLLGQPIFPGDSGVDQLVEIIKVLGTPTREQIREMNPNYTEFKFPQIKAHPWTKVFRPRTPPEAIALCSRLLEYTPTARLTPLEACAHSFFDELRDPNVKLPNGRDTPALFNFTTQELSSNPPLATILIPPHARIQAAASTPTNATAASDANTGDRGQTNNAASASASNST
T2 sequence (P53779 40-402): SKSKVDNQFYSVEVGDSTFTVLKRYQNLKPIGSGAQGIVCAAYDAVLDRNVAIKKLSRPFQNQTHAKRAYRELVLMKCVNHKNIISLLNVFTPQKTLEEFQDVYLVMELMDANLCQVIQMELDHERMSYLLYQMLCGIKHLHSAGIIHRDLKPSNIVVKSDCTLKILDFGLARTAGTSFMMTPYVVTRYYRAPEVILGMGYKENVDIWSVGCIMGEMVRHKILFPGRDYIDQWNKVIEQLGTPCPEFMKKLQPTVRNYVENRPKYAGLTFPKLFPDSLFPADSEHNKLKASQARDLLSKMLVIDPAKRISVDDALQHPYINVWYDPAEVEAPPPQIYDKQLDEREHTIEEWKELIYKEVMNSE
T1 sequence (P12931 whole entry): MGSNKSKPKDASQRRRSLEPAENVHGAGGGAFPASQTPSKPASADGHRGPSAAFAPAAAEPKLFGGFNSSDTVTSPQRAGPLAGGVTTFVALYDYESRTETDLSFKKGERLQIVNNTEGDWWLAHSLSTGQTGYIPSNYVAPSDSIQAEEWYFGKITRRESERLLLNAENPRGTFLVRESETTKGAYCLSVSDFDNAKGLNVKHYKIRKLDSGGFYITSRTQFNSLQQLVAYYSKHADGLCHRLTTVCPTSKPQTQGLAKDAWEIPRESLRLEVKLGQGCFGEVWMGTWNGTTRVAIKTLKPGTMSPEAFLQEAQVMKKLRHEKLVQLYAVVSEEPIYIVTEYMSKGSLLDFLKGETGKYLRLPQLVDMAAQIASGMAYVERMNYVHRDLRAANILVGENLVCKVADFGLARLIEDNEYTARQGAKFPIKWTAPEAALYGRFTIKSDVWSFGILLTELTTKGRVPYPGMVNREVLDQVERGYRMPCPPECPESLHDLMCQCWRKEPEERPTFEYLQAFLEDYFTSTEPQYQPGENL

For `COc1cc(-c2ccnc(Nc3ccc(N)cc3)n2)cc(OC)c1OC` [Compound I-34], the Ki was more than 1000 nM in assay [1] (10 μM ATP, read-out: Activity in the SRC Inhibition Assay (Ki rating A-C)); 100 to 1000 nM in assay [2]; less than 100 nM on activated JNK3.

As to `COc1cc(-c2ccnc(Nc3cccc(N)c3)n2)cc(OC)c1OC` [Compound I-57], the inhibition at 2 µM in assay [1] (at a 2 μM inhibitor concentration, read-out: Activity in the SRC Inhibition Assay (percent inhibition rating D-F)) is 24 to 66%. In addition, the inhibitory constant (Ki) was 100 to 1000 nM in assay [2] and less than 100 nM on activated JNK3.
